According to PubChem BioAssay (NCI):
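Briefly, cells in 96-well plates were exposed to five compound concentrations for 48 h, and endpoints were estimated by linear interpolation. GI50 is the concentration that inhibits growth by half. TGI denotes the concentration required for complete inhibition of growth.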

Key:
Experiment in all cases: DTP human tumour cell line panel, 48 h
[1] = tested on: U251 CNS
[2] = tested on: NCI-H522 lung
[3] = tested on: SN12C renal
[4] = tested on: OVCAR-8 ovarian
[5] = tested on: T-47D breast
[6] = tested on: UACC-257 melanoma
[7] = tested on: 786-0 renal
[8] = tested on: SF-268 CNS
[9] = tested on: SK-OV-3 ovarian
[10] = tested on: CCRF-CEM leukemia
[11] = tested on: OVCAR-5 ovarian
[12] = tested on: SK-MEL-2 melanoma
[13] = tested on: SW-620 colon
[14] = tested on: HT29 colon
[15] = tested on: BT-549 breast
[16] = tested on: ACHN renal
[17] = tested on: KM12 colon
[18] = tested on: SF-295 CNS
[19] = tested on: MCF7 breast
[20] = tested on: RXF 393 renal
[21] = tested on: A549 NSCLC
[22] = tested on: HS 578T breast
[23] = tested on: COLO 205 colon
[24] = tested on: UO-31 renal
[25] = tested on: HCT-116 colon
[26] = tested on: MDA-MB-435
[27] = tested on: OVCAR-4 ovarian
[28] = tested on: IGROV1 ovarian
[29] = tested on: PC-3 prostate
[30] = tested on: SK-MEL-5 melanoma
[31] = tested on: HL-60(TB) leukemia
[32] = tested on: HOP-92 NSCLC
[33] = tested on: HCC-2998 colon
[34] = tested on: K-562 leukemia
[35] = tested on: HOP-62 NSCLC
[36] = tested on: MALME-3M melanoma
[37] = tested on: TK-10 renal
[38] = tested on: CAKI-1 renal
[39] = tested on: M14 melanoma
[40] = tested on: SR leukemia
[41] = tested on: HCT-15 colon
[42] = tested on: NCI-H460 lung
[43] = tested on: A498 renal
[44] = tested on: UACC-62 melanoma
[45] = tested on: MOLT-4 leukemia
[46] = tested on: RPMI-8226 leukemia
[47] = tested on: SF-539 CNS
[48] = tested on: SNB-75 CNS
[49] = tested on: NCI-H23 lung
[50] = tested on: NCI/ADR-RES ovarian
[51] = tested on: SK-MEL-28 melanoma
[52] = tested on: DU-145 prostate
[53] = tested on: OVCAR-3 ovarian
[54] = tested on: MDA-MB-231 breast
[55] = tested on: EKVX NSCLC
[56] = tested on: SNB-19 CNS
[57] = tested on: LOX IMVI melanoma
[58] = tested on: NCI-H226 lung

Question: With `Cc1cc(Br)c(NC(=O)c2c(-c3c(Cl)cccc3Cl)noc2C)c(Br)c1` as the compound, how does the GI50 [1] read?
Answer: > 100 µM

Question: What about the TGI [1] of the same compound?
Answer: > 100 µM

Question: And the GI50 [2]?
Answer: > 100 µM

Question: What about the TGI [2] of the same compound?
Answer: > 100 µM

Question: What about the GI50 [3] of the same compound?
Answer: > 100 µM

Question: What about the TGI [3] of the same compound?
Answer: > 100 µM

Question: What about the GI50 [4] of the same compound?
Answer: > 100 µM

Question: And the TGI [4]?
Answer: > 100 µM

Question: What about the GI50 [5] of the same compound?
Answer: > 100 µM

Question: And the TGI [5]?
Answer: > 100 µM

Question: And the GI50 [6]?
Answer: > 100 µM

Question: What about the TGI [6] of the same compound?
Answer: > 100 µM

Question: What about the GI50 [7] of the same compound?
Answer: > 100 µM

Question: What about the TGI [7] of the same compound?
Answer: > 100 µM

Question: What about the GI50 [8] of the same compound?
Answer: > 100 µM

Question: What about the TGI [8] of the same compound?
Answer: > 100 µM

Question: And the GI50 [9]?
Answer: > 100 µM

Question: What about the TGI [9] of the same compound?
Answer: > 100 µM

Question: What about the GI50 [10] of the same compound?
Answer: > 100 µM

Question: And the TGI [10]?
Answer: > 100 µM

Question: And the GI50 [11]?
Answer: > 100 µM

Question: What about the TGI [11] of the same compound?
Answer: > 100 µM

Question: What about the GI50 [12] of the same compound?
Answer: > 100 µM

Question: What about the TGI [12] of the same compound?
Answer: > 100 µM

Question: What about the GI50 [13] of the same compound?
Answer: > 100 µM

Question: And the TGI [13]?
Answer: > 100 µM

Question: What about the GI50 [14] of the same compound?
Answer: > 100 µM

Question: And the TGI [14]?
Answer: > 100 µM

Question: What about the GI50 [15] of the same compound?
Answer: > 100 µM

Question: And the TGI [15]?
Answer: > 100 µM

Question: And the GI50 [16]?
Answer: > 100 µM

Question: What about the TGI [16] of the same compound?
Answer: > 100 µM

Question: What about the GI50 [17] of the same compound?
Answer: > 100 µM

Question: What about the TGI [17] of the same compound?
Answer: > 100 µM

Question: And the GI50 [18]?
Answer: 2150 nM

Question: What about the TGI [18] of the same compound?
Answer: > 100 µM

Question: What about the GI50 [19] of the same compound?
Answer: > 100 µM

Question: What about the TGI [19] of the same compound?
Answer: > 100 µM

Question: What about the GI50 [20] of the same compound?
Answer: 71.9 µM

Question: What about the TGI [20] of the same compound?
Answer: > 100 µM

Question: And the GI50 [21]?
Answer: > 100 µM

Question: And the TGI [21]?
Answer: > 100 µM

Question: What about the GI50 [22] of the same compound?
Answer: 26.5 µM

Question: What about the TGI [22] of the same compound?
Answer: > 100 µM

Question: What about the GI50 [23] of the same compound?
Answer: > 100 µM

Question: What about the TGI [23] of the same compound?
Answer: > 100 µM

Question: What about the GI50 [24] of the same compound?
Answer: > 100 µM

Question: And the TGI [24]?
Answer: > 100 µM

Question: And the GI50 [25]?
Answer: > 100 µM

Question: What about the TGI [25] of the same compound?
Answer: > 100 µM

Question: And the GI50 [26]?
Answer: > 100 µM

Question: What about the TGI [26] of the same compound?
Answer: > 100 µM

Question: And the GI50 [27]?
Answer: 73.4 µM

Question: What about the TGI [27] of the same compound?
Answer: > 100 µM

Question: And the GI50 [28]?
Answer: > 100 µM

Question: And the TGI [28]?
Answer: > 100 µM

Question: What about the GI50 [29] of the same compound?
Answer: > 100 µM

Question: What about the TGI [29] of the same compound?
Answer: > 100 µM

Question: And the GI50 [30]?
Answer: > 100 µM

Question: What about the TGI [30] of the same compound?
Answer: > 100 µM

Question: And the GI50 [31]?
Answer: > 100 µM

Question: And the TGI [31]?
Answer: > 100 µM

Question: What about the GI50 [32] of the same compound?
Answer: > 100 µM

Question: What about the TGI [32] of the same compound?
Answer: > 100 µM

Question: And the GI50 [33]?
Answer: > 100 µM

Question: What about the TGI [33] of the same compound?
Answer: > 100 µM

Question: And the GI50 [34]?
Answer: > 100 µM

Question: And the TGI [34]?
Answer: > 100 µM

Question: What about the GI50 [35] of the same compound?
Answer: 30.8 µM

Question: What about the TGI [35] of the same compound?
Answer: > 100 µM

Question: And the GI50 [36]?
Answer: > 100 µM

Question: What about the TGI [36] of the same compound?
Answer: > 100 µM

Question: And the GI50 [37]?
Answer: > 100 µM

Question: What about the TGI [37] of the same compound?
Answer: > 100 µM

Question: And the GI50 [38]?
Answer: 7.81 µM

Question: What about the TGI [38] of the same compound?
Answer: > 100 µM

Question: What about the GI50 [39] of the same compound?
Answer: > 100 µM

Question: What about the TGI [39] of the same compound?
Answer: > 100 µM

Question: And the GI50 [40]?
Answer: > 100 µM

Question: What about the TGI [40] of the same compound?
Answer: > 100 µM

Question: What about the GI50 [41] of the same compound?
Answer: > 100 µM

Question: And the TGI [41]?
Answer: > 100 µM

Question: What about the GI50 [42] of the same compound?
Answer: > 100 µM

Question: What about the TGI [42] of the same compound?
Answer: > 100 µM

Question: And the GI50 [43]?
Answer: > 100 µM

Question: And the TGI [43]?
Answer: > 100 µM

Question: What about the GI50 [44] of the same compound?
Answer: 14.3 µM

Question: And the TGI [44]?
Answer: > 100 µM

Question: And the GI50 [45]?
Answer: > 100 µM

Question: And the TGI [45]?
Answer: > 100 µM

Question: And the GI50 [46]?
Answer: > 100 µM

Question: And the TGI [46]?
Answer: > 100 µM

Question: And the GI50 [47]?
Answer: > 100 µM

Question: And the TGI [47]?
Answer: > 100 µM

Question: What about the GI50 [48] of the same compound?
Answer: 47.2 µM

Question: What about the TGI [48] of the same compound?
Answer: > 100 µM

Question: What about the GI50 [49] of the same compound?
Answer: > 100 µM

Question: What about the TGI [49] of the same compound?
Answer: > 100 µM

Question: What about the GI50 [50] of the same compound?
Answer: > 100 µM

Question: And the TGI [50]?
Answer: > 100 µM

Question: What about the GI50 [51] of the same compound?
Answer: > 100 µM

Question: What about the TGI [51] of the same compound?
Answer: > 100 µM

Question: What about the GI50 [52] of the same compound?
Answer: 90.8 µM

Question: And the TGI [52]?
Answer: > 100 µM

Question: What about the GI50 [53] of the same compound?
Answer: > 100 µM

Question: And the TGI [53]?
Answer: > 100 µM

Question: And the GI50 [54]?
Answer: > 100 µM

Question: And the TGI [54]?
Answer: > 100 µM

Question: And the GI50 [55]?
Answer: > 100 µM

Question: And the TGI [55]?
Answer: > 100 µM

Question: And the GI50 [56]?
Answer: > 100 µM

Question: And the TGI [56]?
Answer: > 100 µM

Question: What about the GI50 [57] of the same compound?
Answer: > 100 µM

Question: And the TGI [57]?
Answer: > 100 µM

Question: And the GI50 [58]?
Answer: 82.5 µM

Question: And the TGI [58]?
Answer: > 100 µM
